Laboratory results reported in patent US20110173718A1, “HERBICIDE TOLERANT PLANTS” (SYNGENTA CROP PROTECTION, INC., priority 2008, published 2011).

Key:
[1] = target: T1, Arabidopsis HST (Arabidopsis thaliana, UniProt Q1ACB3); assay: HST total extraction (non TLC) assay, recombinant Arabidopsis HST from insect cells; format: biochemical
T1 construct: GST (factor Xa cleavage site) (N); made in house; host or cells: Sf9 insect cells (baculovirus, pAcG3X), membrane fraction
T1 sequence (Q1ACB3 70-386): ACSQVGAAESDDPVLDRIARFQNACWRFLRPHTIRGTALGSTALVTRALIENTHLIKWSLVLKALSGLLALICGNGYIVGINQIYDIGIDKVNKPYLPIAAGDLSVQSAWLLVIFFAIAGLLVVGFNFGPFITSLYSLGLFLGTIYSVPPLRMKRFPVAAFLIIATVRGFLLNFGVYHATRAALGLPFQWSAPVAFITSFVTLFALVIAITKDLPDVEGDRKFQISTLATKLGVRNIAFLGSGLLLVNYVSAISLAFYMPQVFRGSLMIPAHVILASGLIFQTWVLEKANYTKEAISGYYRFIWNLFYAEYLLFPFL

[2] = tested on: weeds; assay: Glasshouse weed control, HST inhibitors alone and with A22, post-emergence; format: in vivo; details: 336 h, 14 DAT, single replicate, read-out: % control score, Obs; for pest or weed control at 15.625 g/ha: 15.625 g/ha alone; for pest or weed control at 62.5 g/ha: 62.5 g/ha alone; for pest or weed control at 250 g/ha: 250 g/ha alone
Experimental: (§1) In a further test, the results of which are depicted in tables 18 and 19, weed seeds are planted out in trays containing 50% peat/50% John Innes no. 3 soil and grown in the glass house at 24-27 C day; 18-21 C night and approximately a 15 h photoperiod. Humidity is ˜65% and light levels at bench level are up to 2 mmol/m^2. Again all spray chemicals are dissolved in 0.2% X77 surfactant and sprayed from a boom on a track sprayer moving at 2 mph with the nozzle set about 2 inches above the plant tops. The spray volume is […]. Sprays are carried out both pre-emergence and post-emergence over small plants at about 7-12 d post-emergence. Plants are assessed at 14 DAT with herbicidal damage scored on a scale from 0 to 100%. The HPPD inhibiting herbicide is compound A22 (4-hydroxy-3-[[2-(2-methoxyethoxy)methyl]-6-(trifluoromethyl)-3-pyridinylicarbonyl]-bicyclo[3.2.1]oct-3-en-2-one) which is sprayed at 2 g/ha both alone and in mixture with various HST herbicides. Results and spray rates are depicted in Tables 18 and 19. Again the Colby formula has been used to calculate synergy scores observed following treatment with the mixture based on the results obtained with the single components alone. Positive synergy is observed between the HPPD herbicide and a wide variety of HST inhibitor herbicides applied both pre and postemergence across a variety of weeds.

[3] = tested on: weeds; assay: Glasshouse weed control, HST inhibitors alone and with A22, pre-emergence; format: in vivo; details: 336 h, 14 DAT; for pest or weed control at 15.625 g/ha: HST inhibitor rate 15.625 g/ha; for pest or weed control at 62.5 g/ha: HST inhibitor rate 62.5 g/ha; for pest or weed control at 250 g/ha: HST inhibitor rate 250 g/ha
Experimental: as §1

[4] = BRAPL, read-out: BRAPL Obs, % control score
[5] = PANMI, read-out: PANMI Obs, % control score
[6] = SIDSP, read-out: SIDSP Obs, % control score
[7] = Digitaria sanguinalis, DIGSA, read-out: DIGSA Obs, % control score
[8] = Echinochloa crus-galli, ECHCG, read-out: ECHCG Obs, % control score
[9] = Setaria faberi, SETFA, read-out: SETFA Obs, % control score

| Estimated IC50 (ppm) [1] [ppm] | SMILES | pest or weed control at 15.625 g/ha ([2]; BRAPL) [%] | pest or weed control at 62.5 g/ha ([2]; BRAPL) [%] | pest or weed control at 250 g/ha ([2]; BRAPL) [%] | pest or weed control at 15.625 g/ha ([2]; PANMI) [%] | pest or weed control at 62.5 g/ha ([2]; PANMI) [%] | pest or weed control at 250 g/ha ([2]; PANMI) [%] | pest or weed control at 15.625 g/ha ([2]; SIDSP) [%] | pest or weed control at 62.5 g/ha ([2]; SIDSP) [%] | pest or weed control at 250 g/ha ([2]; SIDSP) [%] | pest or weed control at 15.625 g/ha ([2]; Digitaria sanguinalis, DIGSA) [%] | pest or weed control at 62.5 g/ha ([2]; Digitaria sanguinalis, DIGSA) [%] | pest or weed control at 250 g/ha ([2]; Digitaria sanguinalis, DIGSA) [%] | pest or weed control at 15.625 g/ha ([2]; Echinochloa crus-galli, ECHCG) [%] | pest or weed control at 62.5 g/ha ([2]; Echinochloa crus-galli, ECHCG) [%] | pest or weed control at 250 g/ha ([2]; Echinochloa crus-galli, ECHCG) [%] | pest or weed control at 15.625 g/ha ([2]; Setaria faberi, SETFA) [%] | pest or weed control at 62.5 g/ha ([2]; Setaria faberi, SETFA) [%] | pest or weed control at 250 g/ha ([2]; Setaria faberi, SETFA) [%] | pest or weed control at 15.625 g/ha [3, 4] [%] | also measured |
| --- | --- | --- | --- | --- | --- | --- | --- | --- | --- | --- | --- | --- | --- | --- | --- | --- | --- | --- | --- | --- | --- |
| 6 | O=c1c(-c2cc(Cl)ccc2C(F)(F)F)c(O)c2nccnc2n1CC(F)F [Compound 2.19] | 20 | 70 | 80 | 40 | 70 | 85 | 15 | 30 | 50 | 30 | 50 | 70 | 30 | 45 | 75 | 30 | 60 | 80 | 0 | pest or weed control at 62.5 g/ha [3, 4]: 10%; pest or weed control at 250 g/ha [3, 4]: 40%; pest or weed control at 15.625 g/ha [3, 5]: 0%; pest or weed control at 62.5 g/ha [3, 5]: 0%; pest or weed control at 250 g/ha [3, 5]: 60%; pest or weed control at 15.625 g/ha [3, 6]: 0%; pest or weed control at 62.5 g/ha [3, 6]: 2%; pest or weed control at 250 g/ha [3, 6]: 10%; pest or weed control at 15.625 g/ha [3, 7]: 0%; pest or weed control at 62.5 g/ha [3, 7]: 0%; pest or weed control at 250 g/ha [3, 7]: 20%; pest or weed control at 15.625 g/ha [3, 8]: 0%; pest or weed control at 62.5 g/ha [3, 8]: 50%; pest or weed control at 250 g/ha [3, 8]: 90%; pest or weed control at 15.625 g/ha [3, 9]: 0%; pest or weed control at 62.5 g/ha [3, 9]: 5%; pest or weed control at 250 g/ha [3, 9]: 60% |
| 78 | Cn1c(=O)c(-c2c(Cl)cccc2C(F)(F)F)c(O)c2nccnc21 [Compound 2.16] | 10 | 30 | 70 | 5 | 40 | 70 | 5 | 40 | 50 | 0 | 2 | 40 | 2 | 15 | 50 | 1 | 30 | 65 | 0 | pest or weed control at 62.5 g/ha [3, 4]: 5%; pest or weed control at 250 g/ha [3, 4]: 50%; pest or weed control at 15.625 g/ha [3, 5]: 0%; pest or weed control at 62.5 g/ha [3, 5]: 0%; pest or weed control at 250 g/ha [3, 5]: 40%; pest or weed control at 15.625 g/ha [3, 6]: 0%; pest or weed control at 62.5 g/ha [3, 6]: 0%; pest or weed control at 250 g/ha [3, 6]: 0%; pest or weed control at 15.625 g/ha [3, 7]: 0%; pest or weed control at 62.5 g/ha [3, 7]: 0%; pest or weed control at 250 g/ha [3, 7]: 0%; pest or weed control at 15.625 g/ha [3, 8]: 0%; pest or weed control at 62.5 g/ha [3, 8]: 15%; pest or weed control at 250 g/ha [3, 8]: 60%; pest or weed control at 15.625 g/ha [3, 9]: 0%; pest or weed control at 62.5 g/ha [3, 9]: 10%; pest or weed control at 250 g/ha [3, 9]: 45% |
| 63 | CC1=NN(C)C(=O)C(c2c(C)cc(C)cc2C)C1=O (stereo not drawn) [Compound 6.1] | 10 | 40 | 75 | 2 | 50 | 80 | 5 | 15 | 20 | 0 | 10 | 30 | 0 | 5 | 50 | 0 | 20 | 70 | 0 | pest or weed control at 62.5 g/ha [3, 4]: 0%; pest or weed control at 250 g/ha [3, 4]: 10%; pest or weed control at 15.625 g/ha [3, 5]: 0%; pest or weed control at 62.5 g/ha [3, 5]: 0%; pest or weed control at 250 g/ha [3, 5]: 40%; pest or weed control at 15.625 g/ha [3, 6]: 0%; pest or weed control at 62.5 g/ha [3, 6]: 0%; pest or weed control at 250 g/ha [3, 6]: 0%; pest or weed control at 15.625 g/ha [3, 7]: 0%; pest or weed control at 62.5 g/ha [3, 7]: 0%; pest or weed control at 250 g/ha [3, 7]: 2%; pest or weed control at 15.625 g/ha [3, 8]: 0%; pest or weed control at 62.5 g/ha [3, 8]: 1%; pest or weed control at 250 g/ha [3, 8]: 60%; pest or weed control at 15.625 g/ha [3, 9]: 0%; pest or weed control at 62.5 g/ha [3, 9]: 2%; pest or weed control at 250 g/ha [3, 9]: 20% |
